According to patent US12692274B2, “Tetrahydroisoquinoline derivatives for the treatment of red blood disorders and inflammatory diseases” (Sanofi, priority 2020, dated 2026):
pEC50, pIC50: −log10 of the molar value. “And” between values parts separate entries of the source, which are not always exact repeats. Identical values can stand only once. Like-named read-outs stand apart in the source and are kept apart here.

Columns and labels:
[1] = target: HIS-Keap1 full length / Biotin-Nrf2 (16-mer) (Homo sapiens, UniProt Q14145); test: biochemical
[2] = test system: genes of interest (GOI) in HUDEP cells; test: Gene expression by qPCR in HUDEP cells treated with compound titration; assay type: cell-based; settings: HbG, read-out: HUDEP HbG EC50 (μM) (Num)
Experimental: Evaluation of the gene expression by qPCR in HUDEP cells treated with titration of novel compounds. HUDEP Compound Treatment Method
HUDEP cells were plated in 96-well plates, @ 25,000 cells per well in 200 μL of maintenance media. Compounds were added in a 10-point dose response starting at 10 uM with 1/3 dilution scheme using the HP digital diluter. A DMSO control was run to all for normalization of DMSO. The compounds were incubated for 48 hours in 37° C. incubator with 5% CO2. Post incubation, total RNA was isolated using Cells to Ct kit and gene expression was evaluated for genes of interest (GOI) after normalizing to a housekeeping gene. The ΔΔCT was calculated and compared to the DMSO control.
Cell Lysis, Isolation and Gene Expression Materials
Cells to Ct is a kit offered by Applied Biosystems. mRNA prepared using this kit can be directly used for cDNA conversion followed subsequently with qPCR for gene expression analysis
Cell lysis and preparation of RNA: For suspension cells such as HUDEPs, 10,000-100,000 cells (as per kit guidelines) were used for making lysates. The plate was centrifuged at 1500 rpm for 5 mins and the cells were pelleted. Spent medium was removed using a multi-channel pipette. 200 μL ice-cold PBS was added to all treated wells, followed by centrifuging at 1500 rpm for 5 mins 195 μL cold PBS were aspirated from all treatment wells without disturbing the cell monolayer.
To prepare the Cells to CT lysis solution, 49.5 μL of the Cells to CT Lysis Buffer and 0.5 μL/well DNase I (returned DNase I reagent to the −20 C freezer immediately after pipetting) were added to each well. The Cells to CT lysis solution was pipetted to a reservoir and 50 μL were added per well to the treated wells. (Mix 35 μL 5 times without creating bubbles and set timer to 5 mins. At the end of the 5-minute incubation, add 5 μL of stop solution with a multichannel pipet touching the tip to the liquid. Then mix 35 μL 5 times without creating bubbles and set timer to 2 mins.)
The plates were sealed and stored at −20° C. until cDNA synthesis. Optionally they were placed on ice to allow for directly moving to the cDNA synthesis.
cDNA Synthesis: The cell lysate plates were thawed on ice if necessary and mixed 4 times with a multi-channel pipette. 4 μL of Superscript IV VILO and 6 μL of Nuclease free water were combined together for each sample. The mixture was poured into a reservoir and 10 μL was pipetted into each well of a 96-well PCR plate. 10 μL of lysate prepared previously was added and mixed 5 times. The wells were completely sealed, especially around the edges, with plate sealing film using the plate sealing paddle. The PCR plate was centrifuged to pull down the sample to the bottom of the wells. The lysate plate was sealed and returned to the −20° C. freezer as soon as possible. The PCR plate was placed in the thermal cycler and run at 20 μL at 25° C. for 10 minutes, 50° C. for 10 minutes, 85° C. for 5 minutes and then 4° C.
Real Time PCR: The cDNA plate was thawed at room temperature when necessary and 30 μL nuclease free water was added to each cell lysate, followed by mixing, up and down 4 times with a pipette. The primers were thawed for the genes of interest—both housekeeping gene (HKG) and gene(s) of interest (GOI).
A template was prepared and the number of wells needed for each gene of interest (GOI) calculated. Each sample required 2 μL of cDNA, 5 μL of Taqman Master Mix, 0.16667 μL of GOI at 60 times concentration, 0.16667 μL of HKG at 60 times concentration and 2.6667 μL of nuclease free water. If genes at 20 times concentration were used, then 2 μL cDNA, 5 μL Taqman Master Mix, 0.5 GOI, 0.5 μL HKG and 2 μL of nuclease free water were combined for each well.
After calculating the number of wells for each gene, GOI, HKG, Taqman Master Mix and Nuclease free water were combined. 8 μL were pipetted in to each well of the 384-well PCR plate as detailed in the template. […]

[3] = test system: NQO1 activation in BEAS-2B cells; test: BEAS-2B cellular MTT assay of NQO1 activation, 0% HSA; assay type: cell-based
In short: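 For the 0% HSA condition, cells were seeded into collagen plates in HSA-free medium. Culture was BEAS-2B in BEBM plus BEGM SingleQuots lacking GA-1000, held under 70% confluence, at a seeding density reaching 95-100% confluence by 48 h.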

[4] = test system: NQO1 activation in BEAS-2B cells; test: BEAS-2B cellular MTT assay of NQO1 activation, 0.3% HSA; assay type: cell-based
In short: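 MTT read-out in BEAS-2B cells grown in BEBM with SingleQuots, no GA-1000, kept below 70% confluence; plates coated with collagen, with 0.3% or 0% HSA medium, seeded to 95-100% confluency at 48 h, 37 °C, 5% CO2.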

[5] = the molecule shown is the open-chain precursor, rcm bond
[6] = Homo sapiens, serum free, read-out: BEAS EC50 (nM) serum free
[7] = serum free, read-out: BEAS EC50 (nM) serum free
[8] = BEAS+ W, read-out: BEAS+ W EC50
[9] = Homo sapiens, BEAS+ W, read-out: BEAS+ W EC50
[10] = Homo sapiens, BEAS+, read-out: BEAS+ EC50

HIS-Keap1 full length / Biotin-Nrf2 (16-mer), sequence (Q14145 whole entry): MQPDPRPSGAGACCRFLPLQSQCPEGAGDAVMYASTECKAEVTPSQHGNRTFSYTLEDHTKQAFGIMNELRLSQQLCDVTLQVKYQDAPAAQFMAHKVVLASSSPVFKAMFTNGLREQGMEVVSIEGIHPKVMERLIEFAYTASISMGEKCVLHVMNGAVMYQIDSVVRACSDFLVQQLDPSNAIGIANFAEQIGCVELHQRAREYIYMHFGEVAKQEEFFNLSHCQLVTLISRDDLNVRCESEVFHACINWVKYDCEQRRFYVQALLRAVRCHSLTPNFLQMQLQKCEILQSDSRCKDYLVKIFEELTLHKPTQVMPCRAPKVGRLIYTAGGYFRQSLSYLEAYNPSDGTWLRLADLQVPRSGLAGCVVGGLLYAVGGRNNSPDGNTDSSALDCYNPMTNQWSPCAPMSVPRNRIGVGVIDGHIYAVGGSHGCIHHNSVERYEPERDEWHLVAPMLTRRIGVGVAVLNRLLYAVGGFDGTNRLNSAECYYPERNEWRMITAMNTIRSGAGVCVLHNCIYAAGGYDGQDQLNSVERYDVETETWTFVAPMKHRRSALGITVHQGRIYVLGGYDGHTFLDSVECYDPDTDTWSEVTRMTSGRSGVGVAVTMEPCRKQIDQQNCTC

Compound	IC50 [1]	EC50 [2]	EC50 [3, 6]	EC50 [3, 7]	pIC50 [1]	pEC50 ([4]; BEAS+, read-out: BEAS+ EC50)	pEC50 [4, 10]	other results
COC(=O)CC1c2ccc3c(c2)CN(CC3)C(=O)c2ccc(cc2)C=CCCCOc2cc(C)c1cn2 (stereo not drawn)	–	–	–	–	–	–	–	ring closure, yield of all isomers (from C=CCCCOc1cc(C)c(C(CC(=O)OC)c2ccc3c(c2)CN(C(=O)c2ccc(C=C)cc2)CC3)cn1, rcm bond, Grubbs catalyst): 64%
COC(=O)C[C@@H]1c2ccc3c(c2)CN(CC3)C(=O)c2ccc(cc2)C=CCCCCn2cnc3c(C)c1ccc32	–	–	–	–	–	–	–	ring closure, yield of all isomers (from C=CCCCCn1cnc2c(C)c([C@H](CC(=O)OC)c3ccc4c(c3)CN(C(=O)c3ccc(C=C)cc3)CC4)ccc21, rcm bond, Grubbs 2nd generation catalyst, 48.0 h): 27%
COC(=O)C[C@H]1c2ccc3c(c2)CN(CC3)C(=O)c2ccc(cc2)CC=CCCCn2nnc3c(C)c1ccc32	–	–	–	–	–	–	–	ring closure, yield of all isomers (from C=CCCCn1nnc2c(C)c([C@@H](CC(=O)OC)c3ccc4c(c3)CN(C(=O)c3ccc(CC=C)cc3)CC4)ccc21, rcm bond, Grubbs catalyst): 99%
Cc1c2ccc3c1nnn3CCCCCCc1ccc(cc1)C(=O)N1CCc3ccc(cc3C1)[C@@H]2CC(=O)O (single isomer, unassigned) [Compound 223]	0.5 nM and 0.9 nM and 1.2 nM (2×)	0.015 µM	–	–	–	–	–	–
Cc1c2ccc3c1nnn3CCCCCCOc1ccc(cc1)C(=O)N1CCc3ccc(cc3C1)[C@@H]2[C@@H](C)C(=O)O [Compound 107]	–	0.038 µM	0.6 nM	0.4 nM	8.80	8.62	8.49	EC50 ([3]; Homo sapiens, Serum Free W, read-out: BEAS EC50 (nM) Serum Free W): 3.6 nM; EC50 ([3]; Serum Free W, read-out: BEAS EC50 (nM) Serum Free W): 4.1 nM; pEC50 [4, 8]: 7.49; pEC50 [4, 9]: 7.78
Cc1c2ccc3c1nnn3CCCCCCc1ccc(cc1)C(=O)N1CCc3ccc(cc3C1)[C@H]2[C@@H](C)C(=O)O [Compound 129]	–	0.013 µM	1360 nM	1220 nM	–	5.51	5.66	pEC50 [4, 8]: 8.66 and 8.80 and 8.72; pEC50 [4, 9]: 8.70
O=C(O)CC1c2ccc(nc2)OCCCCOc2ccc(cc2)C(=O)N2CCc3ccc1cc3C2 (stereo not drawn) [Compound 211, 2-(4-oxo-31,32,33,34-tetrahydro-6,11-dioxa-3(7,2)-isoquinolina-1(5,2)-pyridina-5(1,4)-benzenacycloundecaphane-2-yl)acetic Acid]	–	–	829 nM	574 nM	7.97 and 7.61	5.76	5.66	ring closure, yield of all isomers (from COC(=O)CC(c1ccc(OCCCCOc2ccc(C(=O)OC(C)(C)C)cc2)nc1)c1ccc2c(c1)CN(C(=O)OC(C)(C)C)CC2, amide bond, 3 steps): 7.8%
Cc1cc2ccc1C(=O)N1CCc3ccc(cc3C1)[C@@H](CC(=O)O)c1ccc3c(nnn3CCCCCC2)c1C [Compound 240]	–	0.018 µM	1.1 nM	0.6 nM	–	9.22	9.00	–
O=C(O)CC1c2ccc3c(c2)CN(CC3)C(=O)c2c(F)cc(cc2F)CCCCCn2nnc3cc1ccc32 (stereo not drawn) [Compound 241]	–	0.095 µM	–	–	9.40	–	–	–
O=C(O)CC1c2ccc3c(c2)CN(CC3)C(=O)c2ccc(c3ccccc23)OCCCCCCn2nnc3cc1ccc32 (stereo not drawn) [Compound 338]	–	0.667 µM	25.3 nM	–	9.70 and 10.00	–	7.56	–
amide of 7-(3-methoxy-3-oxo-1-(2-(pent-4-en-1-yloxy)pyrimidin-5-yl)propyl)-1,2,3,4-tetrahydroisoquinolin-2-ium chloride with 4-vinylbenzoic acid	–	–	–	–	–	–	–	ring closure, crude yield ([5]; 21-membered ring, Grubbs catalyst (General procedure 15)): 20%
amide of benzyl 3-(6-(pent-4-en-1-yloxy)pyridin-3-yl)-3-(1,2,3,4-tetrahydroisoquinolin-7-yl)propanoate with 1-methyl-5-vinyl-1H-pyrrolo[2,3-b]pyridine-2-carboxylic acid	–	–	–	–	–	–	–	ring closure, crude yield ([5]; 22-membered ring, Grubbs catalyst (General procedure 15)): 51%
amide of methyl 3-(1-(but-3-en-1-yl)-4-methyl-1H-benzo[d][1,2,3]triazol-5-yl)-3-(1,2,3,4-tetrahydroisoquinolin-7-yl)propanoate with 5-(but-3-en-1-yloxy)pyrazine-2-carboxylic acid	–	–	–	–	–	–	–	ring closure, crude yield ([5]; 23-membered ring, Grubbs catalyst (General procedure 7)): 42%
